Assay results from publication PMC9034004, “Methionine epimerization in cyclic peptides” (RSC Advances, 2021).

How the values were obtained:
[1] = system: MDA-MB-231 cells; assay: CytoTox Green cytotoxicity assay, MDA-MB-231; type: cell-based, Human; settings: 100 μM, 48 h, 8000 cells per well, DMSO 2% as negative control
Experimental: A Forma Series II 3110 Water-Jacketed CO2 Incubator (Thermo Fisher Scientific) containing T-75 cell culture flasks at 37 °C under a humidified atmosphere was used to culture human breast cancer cell lines MDA-MB-231 and Sk-Br-3. 10% fetal bovine serum (FBS) and 1% penicillin under 5% CO2 were used to supplement McCoy's 5A Modified Medium to culture Sk-Br-3 cell line, and 10% FBS and 1% penicillin under 0% CO2 were used to supplement Leibovitz's L-15 Medium to culture MDA-MB-231 cell line. Each cell line's culture medium was changed every 2–3 days.
MDA-MB-231 and Sk-Br-3 cells were plated in 96-well plates at 8000 cells per well (final culture volume – 300 μL) and allowed to grow overnight for attachment before being treated with LO. LO stock solutions were prepared in DMSO at various concentrations of 200 μM; 100 μM; 50 μM, 25 μM, 12.5 μM. CytoTox Green reagent was added to wells during treatments. DMSO treated cells (final concentration at 2%) were used as a negative control. Following the manufacturer's recommended protocols, LOs cytotoxicity was continuously monitored at 24 h intervals for 120 h and calculated using the equation.Cytotoxicity (%) = [OD (experiment) − OD (vehicle control)]/[OD (maximum cell death) − OD (vehicle control)] × 100%

[2] = Alkaline treatment of LOs (base-catalysed Met epimerization, HPLC); type: physicochemical; settings: LOs 1, 4 and 7 mixture treated with KOH in 70% aqueous ethanol, HPLC at 214 nm and 280 nm
Experimental: HPLC data was collected at a wavelength range of 190–300 nm using Agilent 1200 series HPLC system equipped with an autosampler, quaternary pump, diode array detector and degasser. Chromatographic separations for Marfey's derivatives were conducted on 100 mm × 4.6 mm i.d., reversed-phase Chromolith® Performance RP-18e columns (Merck KGaA, Darmstadt, Germany). The mobile phase consisted of H2O and 0.05 M triethyl phosphate buffer at a flow rate of 2 mL min^−1 (85 : 15 for 3 min, 85 : 15 to 60 : 40 in 18 min, to 10 : 90 in 0.5 min, 10 : 90 for 1 min, to 85 : 15 in 0.5 min, to equilibration for 2 min) with column compartment at 30 °C. Chromolith® High Resolution RP-18e columns 50 mm × 4.6 mm i.d. (Merck KGaA, Darmstadt, Germany) equipped with in-line filters were used for LO analytical characterization. H2O and CH3CN linear HPLC gradient with a flow rate of 2 mL min^−1 (50 : 50 to 20 : 80 for 1.8 min, 20 : 80 to 10 : 90 in 0.1 min, to 50 : 50 in 0.1 min, to equilibration for 1 min), and a column compartment at 32 °C was used.
LO (1 g) was dissolved in 70% aqueous ethanol (2.5 mL) and KOH (0.25 g) was added. The mixture was sonicated for 30 min. A portion of the mixture (∼1 mL) was transferred to a glass vial and extracted with EtOAc (∼3 mL) then settled. The upper EtOAc phase was transferred by pipette to a clean tube and dried under airflow. […]

Substance	% cytotoxicity [1]	new HPLC peak after KOH treatment (in words) [2]
[1−9-NαC], DMet-linusorb B2 [LO 8]	~100%	
[1−9-NαC]-linusorb B2 [LO 2]	~40%	
[1−9-NαC]-linusorb B3 [LO 1]		no extra peak was observed
